Experimental data: patent US9446039B2, “Aminoheteroaryl compounds as MTH1 inhibitors” (CEMM—FORSCHUNGSZENTRUM FÜR MOLEKULARE MEDIZIN GMBH, priority 2012, dated 2016)

Assays:
Format in all cases: binding
[1] = target: SW480 colon carcinoma cells lysate proteins (Homo sapiens, UniProt O75874); conditions: PreyGene IDH1
[2] = target: SW480 colon carcinoma cells lysate proteins (Homo sapiens, UniProt P07355); conditions: PreyGene ANXA2
[3] = target: T1, SW480 colon carcinoma cells lysate proteins (Homo sapiens, UniProt P12429); conditions: PreyGene ANXA3
T1 sequence (P12429 1-323): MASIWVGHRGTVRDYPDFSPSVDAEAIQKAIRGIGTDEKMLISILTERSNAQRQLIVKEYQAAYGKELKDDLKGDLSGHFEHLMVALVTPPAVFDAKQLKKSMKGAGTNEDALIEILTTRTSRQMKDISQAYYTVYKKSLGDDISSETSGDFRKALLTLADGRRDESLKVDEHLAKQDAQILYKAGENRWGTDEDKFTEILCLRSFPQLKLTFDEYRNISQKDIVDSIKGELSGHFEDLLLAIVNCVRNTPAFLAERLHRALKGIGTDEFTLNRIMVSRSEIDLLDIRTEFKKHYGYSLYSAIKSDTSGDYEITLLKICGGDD

[4] = target: T2, SW480 colon carcinoma cells lysate proteins (Homo sapiens, UniProt P31949); conditions: PreyGene S100A11
T2 sequence (P31949 1-105): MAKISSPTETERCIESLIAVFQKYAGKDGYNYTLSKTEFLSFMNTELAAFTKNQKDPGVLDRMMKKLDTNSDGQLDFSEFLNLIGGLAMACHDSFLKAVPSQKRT

[5] = target: SW480 colon carcinoma cells lysate proteins (Homo sapiens, UniProt P39687); conditions: PreyGene ANP32A
[6] = target: T3, SW480 colon carcinoma cells lysate proteins (Homo sapiens, UniProt P40925); conditions: PreyGene MDH1
T3 sequence (P40925 1-334): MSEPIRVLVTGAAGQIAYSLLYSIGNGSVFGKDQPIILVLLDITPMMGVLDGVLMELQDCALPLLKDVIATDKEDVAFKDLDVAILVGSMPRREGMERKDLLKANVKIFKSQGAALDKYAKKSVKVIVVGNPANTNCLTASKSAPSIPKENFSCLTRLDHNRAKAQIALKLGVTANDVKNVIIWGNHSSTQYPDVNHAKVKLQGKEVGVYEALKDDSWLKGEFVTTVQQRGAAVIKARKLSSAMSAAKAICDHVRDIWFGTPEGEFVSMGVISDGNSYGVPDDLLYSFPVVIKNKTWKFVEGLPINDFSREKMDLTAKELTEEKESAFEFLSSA

[7] = target: SW480 colon carcinoma cells lysate proteins (Homo sapiens, UniProt P62861); conditions: PreyGene FAU
[8] = target: SW480 colon carcinoma cells lysate proteins (Homo sapiens, UniProt Q07812); conditions: PreyGene BAX; SW480 cells
[9] = target: SW480 colon carcinoma cells lysate proteins (Homo sapiens, UniProt Q71U36); conditions: PreyGene TUBA1A; SW480 cells
[10] = target: SW480 colon carcinoma cells lysate proteins (Homo sapiens, UniProt Q71UM5); conditions: PreyGene RPS27L; SW480 cells
[11] = target: SW480 colon carcinoma cells lysate proteins (Homo sapiens, UniProt Q92688); conditions: PreyGene ANP32B
Sequence of SW480 colon carcinoma cells lysate proteins (Homo sapiens, UniProt Q92688) (Q92688 whole entry): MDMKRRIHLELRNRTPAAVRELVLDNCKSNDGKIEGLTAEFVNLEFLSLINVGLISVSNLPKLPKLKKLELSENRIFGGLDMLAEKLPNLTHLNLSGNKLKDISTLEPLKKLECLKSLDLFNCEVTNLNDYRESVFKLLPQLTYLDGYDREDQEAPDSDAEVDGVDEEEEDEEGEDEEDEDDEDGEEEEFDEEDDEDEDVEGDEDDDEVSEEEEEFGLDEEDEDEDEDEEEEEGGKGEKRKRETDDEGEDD

Sequence of SW480 colon carcinoma cells lysate proteins (Homo sapiens, UniProt P07355) (P07355 whole entry): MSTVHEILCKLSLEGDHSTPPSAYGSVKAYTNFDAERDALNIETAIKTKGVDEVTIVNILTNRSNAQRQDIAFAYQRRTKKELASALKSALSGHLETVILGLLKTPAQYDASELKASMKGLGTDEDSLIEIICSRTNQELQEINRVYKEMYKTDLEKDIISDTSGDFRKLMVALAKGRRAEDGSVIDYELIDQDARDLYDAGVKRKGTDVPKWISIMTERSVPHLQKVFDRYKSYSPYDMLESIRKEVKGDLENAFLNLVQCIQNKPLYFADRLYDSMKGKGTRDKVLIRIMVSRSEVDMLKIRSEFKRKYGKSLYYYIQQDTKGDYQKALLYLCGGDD
Sequence of SW480 colon carcinoma cells lysate proteins (Homo sapiens, UniProt Q07812) (Q07812 whole entry): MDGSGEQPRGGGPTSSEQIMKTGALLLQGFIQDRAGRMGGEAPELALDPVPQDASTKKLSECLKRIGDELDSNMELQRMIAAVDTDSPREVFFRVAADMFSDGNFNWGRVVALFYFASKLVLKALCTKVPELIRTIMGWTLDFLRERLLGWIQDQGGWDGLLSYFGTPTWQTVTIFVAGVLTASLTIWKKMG
Sequence of SW480 colon carcinoma cells lysate proteins (Homo sapiens, UniProt O75874) (O75874 whole entry): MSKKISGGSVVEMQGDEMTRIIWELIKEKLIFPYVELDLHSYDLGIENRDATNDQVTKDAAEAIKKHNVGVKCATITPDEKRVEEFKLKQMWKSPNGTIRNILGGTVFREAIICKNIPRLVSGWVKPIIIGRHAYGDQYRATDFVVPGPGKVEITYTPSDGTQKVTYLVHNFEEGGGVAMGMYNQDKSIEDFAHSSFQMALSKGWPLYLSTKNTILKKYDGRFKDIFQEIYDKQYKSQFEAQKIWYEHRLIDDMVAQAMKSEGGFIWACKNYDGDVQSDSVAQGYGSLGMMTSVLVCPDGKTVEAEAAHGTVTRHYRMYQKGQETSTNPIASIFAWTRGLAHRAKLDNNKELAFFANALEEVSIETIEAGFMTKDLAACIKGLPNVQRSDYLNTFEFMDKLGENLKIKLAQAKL
Sequence of SW480 colon carcinoma cells lysate proteins (Homo sapiens, UniProt P39687) (P39687 whole entry): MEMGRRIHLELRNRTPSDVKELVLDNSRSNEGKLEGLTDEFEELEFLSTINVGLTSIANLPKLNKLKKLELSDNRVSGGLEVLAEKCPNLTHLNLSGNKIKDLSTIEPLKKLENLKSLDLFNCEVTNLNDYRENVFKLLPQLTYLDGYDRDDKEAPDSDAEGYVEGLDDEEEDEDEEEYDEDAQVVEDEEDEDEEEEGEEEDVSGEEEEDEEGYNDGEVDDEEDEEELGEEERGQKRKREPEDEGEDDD
Sequence of SW480 colon carcinoma cells lysate proteins (Homo sapiens, UniProt Q71U36) (Q71U36 whole entry): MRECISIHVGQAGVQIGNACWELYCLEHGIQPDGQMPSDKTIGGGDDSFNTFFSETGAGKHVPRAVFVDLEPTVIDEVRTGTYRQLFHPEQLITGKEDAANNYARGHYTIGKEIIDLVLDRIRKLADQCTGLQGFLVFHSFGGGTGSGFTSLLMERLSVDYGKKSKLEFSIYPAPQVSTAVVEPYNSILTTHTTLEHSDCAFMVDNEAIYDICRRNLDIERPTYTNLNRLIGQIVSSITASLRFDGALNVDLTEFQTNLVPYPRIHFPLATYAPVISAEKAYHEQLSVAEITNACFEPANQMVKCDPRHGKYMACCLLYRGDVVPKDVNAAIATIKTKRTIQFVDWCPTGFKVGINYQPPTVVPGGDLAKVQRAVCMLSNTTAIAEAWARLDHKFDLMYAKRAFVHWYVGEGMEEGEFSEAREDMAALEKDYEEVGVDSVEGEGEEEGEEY

C[C@H](Oc1cc(-c2cnn(C3CCNCC3)c2)cnc1N)c1c(Cl)ccc(F)c1Cl [(5)-crizotinib]
AvgP [1]: 0.1991
SC.Exp. 1-1 [1]: 3
SC.Exp. 1-2 [1]: 0
SC.Exp. 2-1 [1]: 0
SC.Exp. 2-2 [1]: 0
Sum (SC.Exp.) [1]: 3
AvgP [2]: 0.41
SC.Exp. 1-1 [2]: 13
SC.Exp. 1-2 [2]: 13
SC.Exp. 2-1 [2]: 0
SC.Exp. 2-2 [2]: 0
Sum (SC.Exp.) [2]: 26
AvgP [3]: 0.461
SC.Exp. 1-1 [3]: 4
SC.Exp. 1-2 [3]: 4
SC.Exp. 2-1 [3]: 0
SC.Exp. 2-2 [3]: 0
Sum (SC.Exp.) [3]: 8
AvgP [4]: 0.3773
SC.Exp. 1-1 [4]: 4
SC.Exp. 1-2 [4]: 5
SC.Exp. 2-1 [4]: 0
SC.Exp. 2-2 [4]: 0
Sum (SC.Exp.) [4]: 9
AvgP [5]: 0.5951
SC.Exp. 1-1 [5]: 1
SC.Exp. 1-2 [5]: 1
SC.Exp. 2-1 [5]: 1
SC.Exp. 2-2 [5]: 3
Sum (SC.Exp.) [5]: 6
AvgP [6]: 0.4615
SC.Exp. 1-1 [6]: 5
SC.Exp. 1-2 [6]: 6
SC.Exp. 2-1 [6]: 0
SC.Exp. 2-2 [6]: 0
Sum (SC.Exp.) [6]: 11
AvgP [7]: 0.2109
SC.Exp. 1-1 [7]: 2
SC.Exp. 1-2 [7]: 4
SC.Exp. 2-1 [7]: 0
SC.Exp. 2-2 [7]: 2
Sum (SC.Exp.) [7]: 8
AvgP [8]: 0
SC.Exp. 1-1 [8]: 1
SC.Exp. 1-2 [8]: 1
SC.Exp. 2-1 [8]: 1
SC.Exp. 2-2 [8]: 1
SC.Exp. Sum [8]: 4
AvgP [9]: 0
SC.Exp. 1-1 [9]: 12
SC.Exp. 1-2 [9]: 11
SC.Exp. 2-1 [9]: 9
SC.Exp. 2-2 [9]: 10
SC.Exp. Sum [9]: 42
AvgP [10]: 0
SC.Exp. 1-1 [10]: 0
SC.Exp. 1-2 [10]: 1
SC.Exp. 2-1 [10]: 0
SC.Exp. 2-2 [10]: 0
SC.Exp. Sum [10]: 1
AvgP [11]: 0.5116
SC.Exp. 1-1 [11]: 0
SC.Exp. 1-2 [11]: 1
SC.Exp. 2-1 [11]: 4
SC.Exp. 2-2 [11]: 4
Sum (SC.Exp.) [11]: 9
